# PubChem BioAssay AID1963447 (Molecular Pharmacology Branch, DTP, NCI, 2024)
# Test system: 885512-296-R-J2-PDC complex spheroid growth, % test/control
# Assay: Anticancer human tumor 885512-296-R-J2-PDC patient-derived breast carcinoma cell line growth inhibition [Asc]
# Conditions: for IC50: curve of first compound; for viability, T/C: stronger effect = lower value
# Procedure: Multicellular complex tumor spheroid response to apoptosis pathway targeting inhibitors Alrizomadlin, Pelcitoclax, and Dasminapant in combination with a variety of drugs and investigational agents in selected tumor cell lines
# The MDM2 inhibitor alrizomadlin, the Bcl-2/Bcl-xL inhibitor pelcitoclax, and the IAPs inhibitor dasminapant were evaluated both individually and in combination with standard of care and investigational anticancer small molecules within a complex spheroid model of solid tumors. . Complex spheroids include a stromal component modeled by human endothelial cells (HUVEC) and fibroblasts modeled by human mesenchymal stem cells (MSCs). The concentration ranges selected for each drug and investigational agent were based upon clinically achievable concentrations if the clinical Cmax of the agent was known.
# Compounds. The drugs and investigational agents: alrizomadlin (APG-115; NSC831270), pelcitoclax (APG-1252; NSC835773), dasminapant (APG-1387;NSC834197), TAK-243 (NSC785004), copanlisib (NSC809693), olaparib (NSC753686), talazoparib (NSC767125), cobimetinib (NSC 768068), eltanexor (KPT-8602, NSC 794443), abemaciclib (NSC 768073), sotorasib (NSC818433), adagrasib (NSC 831453), MRTX-1133 (NSC 836407), Iadademestat (ORY1001, NSC 806812), and RMC-4630 (NSC839698), were obtained from the NCI Developmental Therapeutics Program Chemical Repository. The FDA-approved anticancer drug set is available from the Developmental Therapeutics Program at https://dtp.cancer.gov/organization/dscb/obtaining/available plates.htm. […] The stock solutions were prepared in dimethyl sulfoxide (DMSO, Sigma-Aldrich, St. Louis, MO, cat. D2650) at 800-fold the tested concentration and stored at -70 degrees C prior to their use. All drugs and investigational agents were tested over a range starting from a high concentration at or near the clinical Cmax and decreasing in half-log increments. If the clinical Cmax for an agent had not been determined, the highest concentration tested was 10 microM.
# The patient-derived cancer (PDC) cell lines include five colon adenocarcinomas: 186277-243-T-J2-PDC, 616215-338-R-J1-PDC, 439559-082-T-J2-PDC, 463943-066-T-J2-PDC, and 519858-162-T-J1-PDC; three pancreatic carcinomas: 323965-272-R-J2-PDC, 521955-158-R6-J3-PDC, and 521955-158-R2-J5-PDC; two uterine sarcomas: 327498-152-R-J2-PDC and 993429-296-R-J1-PDC; two rhabdomyosarcomas: 755483-174-R-J1-PDC and 772245-204-R-J1-PDC; two soft tissue sarcomas: 126254-015-R-J1-PDC and 494315-158-R-J1-PDC; two malignant fibrous histiocytomas: 317291-083-R-J1-PDC and 596521-263-R-J1-PDC; two breast carcinomas: 171881-019-R-J1-PDC and 885512-296-R-J2-PDC; and one ovarian carcinoma: 6556581-035-R-J-PDC were obtained from the NCI PDMR, (https://pdmr.cancer.gov). The established cell lines HSSY-2 synovial sarcoma (RRID:CVCL 8719), SYO-1 synovial sarcoma (RRID:CVCL_7146), MPNST malignant peripheral neural sheath tumor were obtained from the Sloan Kettering Institute. The following established cell lines were purchased from the American Type Culture Collection (ATCC, Manassas, VA), Sor the received from the NCI repository:, PANC-1 pancreatic carcinoma (CRL-1469, RRID:CVCL_0480), OVCAR-5 ovarian carcinoma (RRID:CVCL_1628), OVCAR-8 ovarian carcinoma (RRID:CVCL_1629), , MCF-7 breast carcinoma (CRL-12584, RRID:CVCL_0031), MDA-MB-231 breast carcinoma (CRL-12532, RRID:CVCL_0062), NCI-H1876 small cell lung carcinoma (CRL-5902, RRID:CVCL_1503), NCI-H510A small cell lung carcinoma (HTB-184, RRID:CVCL_1565), NCI-H1417 (CRL-5869, RRID:CVCL_1469), and NCI-H196 small cell lung carcinoma (CRL-5823, RRID:CVCL_1509). Dr. Peter Houghton (Greehey Children's Cancer Research Institute, University of Texas Health Science Center, San Antonio, TX) provided Rh-18 rhabdomyosarcoma (RRID:CVCL_1659). Pooled donor human umbilical vein endothelial cells (HUVEC, Lonza, cat. CC-2519) and human mesenchymal stem cells (hMSC, Lonza, cat. PT-2501) were purchased from Lonza (Walkersville, MD).
# Cell Culture. […]
# [1] = second compound 0.03 µM, first compound 0.00316 µM
# [2] = second compound 0.03 µM, first compound 0.01 µM
# [3] = second compound 0.03 µM, first compound 0.0316 µM
# [4] = second compound 0.03 µM, first compound 0.1 µM
# [5] = second compound 0.0949 µM, first compound 0.00316 µM
# [6] = second compound 0.0949 µM, first compound 0.01 µM
# [7] = second compound 0.0949 µM, first compound 0.0316 µM
# [8] = second compound 0.0949 µM, first compound 0.1 µM
# [9] = second compound 0.3 µM, first compound 0.00316 µM
# [10] = second compound 0.3 µM, first compound 0.01 µM
# [11] = second compound 0.3 µM, first compound 0.0316 µM
# [12] = second compound 0.3 µM, first compound 0.1 µM
# [13] = second compound 0.949 µM, first compound 0.00316 µM
# [14] = second compound 0.949 µM, first compound 0.01 µM
# [15] = second compound 0.949 µM, first compound 0.0316 µM
# [16] = second compound 0.949 µM, first compound 0.1 µM
# [17] = second compound 3 µM, first compound 0.00316 µM
# [18] = second compound 3 µM, first compound 0.01 µM
# [19] = second compound 3 µM, first compound 0.0316 µM
# [20] = second compound 3 µM, first compound 0.1 µM
# [21] = second compound 0.03 µM, first compound 0.316 µM
# [22] = second compound 0.03 µM, first compound 1 µM
# [23] = second compound 0.0949 µM, first compound 0.316 µM
# [24] = second compound 0.0949 µM, first compound 1 µM
# [25] = second compound 0.3 µM, first compound 0.316 µM
# [26] = second compound 0.3 µM, first compound 1 µM
# [27] = second compound 0.949 µM, first compound 0.316 µM
# [28] = second compound 0.949 µM, first compound 1 µM
# [29] = second compound 3 µM, first compound 0.316 µM
# [30] = second compound 3 µM, first compound 1 µM
# 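Note: spheroids exposed to compounds for seven days.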
# 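Throughout, for viability, T/C: 100% = DMSO vehicle control wells.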
IC50 (second compound 0.03 µM),IC50 (second compound 0.0949 µM),IC50 (second compound 0.3 µM),IC50 (second compound 0.949 µM),IC50 (second compound 3 µM),Compound,"viability, T/C [1]","viability, T/C [2]","viability, T/C [3]","viability, T/C [4]","viability, T/C [5]","viability, T/C [6]","viability, T/C [7]","viability, T/C [8]","viability, T/C [9]","viability, T/C [11]","viability, T/C [12]","viability, T/C [15]","viability, T/C [16]","viability, T/C [19]","viability, T/C [20]",also measured
37.8 nM,54.2 nM,21 nM,23.5 nM,< 0.316 nM,Cn1ncnc1[C@H]1c2n[nH]c(=O)c3cc(F)cc(c23)N[C@@H]1c1ccc(F)cc1 + CCN1C(C(=O)NC23CCC(C(=O)O)(CC2)CC3)C(c2cccc(Cl)c2F)C2(C(=O)Nc3cc(Cl)ccc32)C12CCCCC2,91.6%,66.9%,58%,35.5%,93.3%,76.2%,57%,43.1%,88%,49.2%,35.2%,47.7%,35.3%,40.2%,31.6%,"viability, T/C (second compound 0.03 µM, first compound 0.000316 µM): 88.7%; viability, T/C (second compound 0.03 µM, first compound 0.001 µM): 107%; viability, T/C (second compound 0.0949 µM, first compound 0.000316 µM): 91%; viability, T/C (second compound 0.0949 µM, first compound 0.001 µM): 101%; viability, T/C (second compound 0.3 µM, first compound 0.000316 µM): 80.5%; viability, T/C (second compound 0.3 µM, first compound 0.001 µM): 90.8%; viability, T/C [10]: 60%; viability, T/C (second compound 0.949 µM, first compound 0.000316 µM): 80.2%; viability, T/C (second compound 0.949 µM, first compound 0.001 µM): 72.6%; viability, T/C [13]: 63.1%; viability, T/C [14]: 60.5%; viability, T/C (second compound 3 µM, first compound 0.000316 µM): 43.9%; viability, T/C (second compound 3 µM, first compound 0.001 µM): 40.2%; viability, T/C [17]: 41.8%; viability, T/C [18]: 38.4%"
4710 nM,5650 nM,5140 nM,5090 nM,< 31.6 nM,O=C(c1cc(Cc2n[nH]c(=O)c3ccccc23)ccc1F)N1CCN(C(=O)C2CC2)CC1 + CCN1C(C(=O)NC23CCC(C(=O)O)(CC2)CC3)C(c2cccc(Cl)c2F)C2(C(=O)Nc3cc(Cl)ccc32)C12CCCCC2,,,80.5%,118%,,,98.8%,116%,,93.3%,97.8%,72%,81.1%,45.1%,54.7%,"viability, T/C [21]: 116%; viability, T/C [22]: 92.7%; viability, T/C (second compound 0.03 µM, first compound 3.16 µM): 67.7%; viability, T/C (second compound 0.03 µM, first compound 10 µM): 17.6%; viability, T/C [23]: 107%; viability, T/C [24]: 90.2%; viability, T/C (second compound 0.0949 µM, first compound 3.16 µM): 79.5%; viability, T/C (second compound 0.0949 µM, first compound 10 µM): 22.9%; viability, T/C [25]: 89.9%; viability, T/C [26]: 98.1%; viability, T/C (second compound 0.3 µM, first compound 3.16 µM): 69.5%; viability, T/C (second compound 0.3 µM, first compound 10 µM): 23.6%; viability, T/C [27]: 76%; viability, T/C [28]: 77.1%; viability, T/C (second compound 0.949 µM, first compound 3.16 µM): 66.8%; viability, T/C (second compound 0.949 µM, first compound 10 µM): 25.3%; viability, T/C [29]: 42.6%; viability, T/C [30]: 47.8%; viability, T/C (second compound 3 µM, first compound 3.16 µM): 47.2%; viability, T/C (second compound 3 µM, first compound 10 µM): 23.5%"
127 nM,148 nM,132 nM,55.3 nM,< 3.16 nM,O=C(c1ccc(F)c(F)c1Nc1ccc(I)cc1F)N1CC(O)([C@@H]2CCCCN2)C1 + CCN1C(C(=O)NC23CCC(C(=O)O)(CC2)CC3)C(c2cccc(Cl)c2F)C2(C(=O)Nc3cc(Cl)ccc32)C12CCCCC2,100%,74.2%,63.5%,62%,89.4%,89.3%,66.5%,57.1%,83.5%,65.7%,55.2%,54%,48.8%,31.4%,35.4%,"viability, T/C [21]: 39.4%; viability, T/C [22]: 18.7%; viability, T/C [23]: 39.1%; viability, T/C [24]: 17.5%; viability, T/C [10]: 80.6%; viability, T/C [25]: 36.8%; viability, T/C [26]: 18.1%; viability, T/C [13]: 67.7%; viability, T/C [14]: 53.4%; viability, T/C [27]: 33.9%; viability, T/C [28]: 17.5%; viability, T/C [17]: 42.7%; viability, T/C [18]: 35.9%; viability, T/C [29]: 22.2%; viability, T/C [30]: 14.7%"
